Source: article PMC12176268, “Structural Features and Photophysical and Antiproliferative Properties of Me2N‑pbt-Cycloplatinated Complexes with Picolinate Ligands” (Inorganic Chemistry, 2025)
Read-outs that look alike come from different tables or passages of the source.

How the values were obtained:
A549 = assay: MTT cell viability assay on A549 cells, dark and 450 nm irradiation; type: cell-based, human; conditions: for EC50: MTT
From the text: (C∧N) cyclometalated Pt(II) complexes have been previously reported to have strong antiproliferative activities when associated with phenanthroline-based, diphosphine, acyclic diamino carbenes, or picolinate ligands. In particular, (Me2N-pbt)-cyclometalated platinum complexes have been previously reported by some of us to have antiproliferative properties in the micromolar range on a panel of cancer cell lines, prompting us to investigate the anticancer properties of complexes 1–4 in dark conditions and, considering their high quantum yield (ϕΔ) of ^1O2 generation, under irradiation conditions. Due to the poor solubility of the complexes in an aqueous environment, complexes 1–4 were first dissolved in DMSO and diluted in the culture media to reach a final concentration of 1% DMSO when incubated with the cells. All complexes were screened against the so-called “triple-negative” breast cancer cell line MDA-MB-231, lung adenocarcinoma cell line A549, and the noncancerous breast cell line MCF-10A for 72 h in dark conditions and under 5 min irradiation at 450 nm (see Experimental Section for details). The irradiation time was kept short to prevent light-induced toxicity of the energetic wavelength observed at longer irradiation times (data not shown). The measurement of the effective concentration at 50% (EC50) was carried out using the classical MTT assay, and the data are provided in Table .
In dark conditions, we could notice a strong influence of substituents on the picolinate ligands. […] This can be correlated with its poor stability in the culture medium mentioned above, which might reduce its cellular uptake. […] However, in dark conditions, no particular selectivity for cancer cells could be observed with similar activity measured against the noncancerous cell line MCF-10A. For the “light” experiments, the cells were preincubated with the complexes for 4 h in the dark, irradiated at 450 nm for 5 min, and then put back in the dark until 72 h. The photoactivity index (PI) values, defined as the ratio between the EC50 in dark conditions and the EC50 after irradiation for each cell line, are shown in Figure .
The human lung adenocarcinoma cell line A549 and human breast cancer cell line MDA-MB-231 were cultivated in DMEM (Dulbecco’s modified Eagle’s medium) containing GlutaMax I supplemented with 10% FBS at 37 °C in a humidified atmosphere and 5% CO2. The noncancerous cell line MCF-10A was maintained in DMEM:F12 (1:1) cell culture media, 5% heat-inactivated horse serum, supplemented with HEPES (20 mM), L-glutamine (2 mM), epidermal growth factor (20 ng/mL), hydrocortisone (500 ng/mL), cholera toxin (100 ng/mL), and insulin (10 μg/mL). Cell viability was evaluated by using a colorimetric method based on the tetrazolium salt MTT [3-(4,5-dimethylthiazol-2-yl)-2,5-diphenyltetrazolium bromide], which is reduced by viable cells to yield purple formazan crystals. Cells were seeded in 96-well plates at a density of 40000 cells/mL (100 μL per well). Stock solutions were prepared in DMSO for complexes 1–4 and in water for cisplatin. […] For dark experiments, after overnight attachment, a dilution series of the compounds was added to the medium, and the cells were incubated for a further 72 h. For the irradiated experiments, after overnight attachment, a dilution series of the compounds was added to the medium, and the cells were preincubated for 4 h. The cells were then irradiated at 450 nm for 5 min with a Kessil Lamp (power: 3 mW/cm^2, 1.13 × 10^–8 Einstein/s at 20 cm distance between the light source and 96-well plate) and the incubation was continued until 72 h. After 72 h, the medium was removed and the cells were incubated with MTT solution in PBS (10 μL of 5 mg/mL) for 2–3 h. The formed purple formazan crystals were dissolved in 100 μL of DMSO by thorough shaking, and the absorbance at 580 nm was read using a microplate reader (FLUOstar OPTIMA, BMG Labtech). Each test was performed with at least 3 replicates and repeated at least 3 times. […]

[1] = Catalytic oxidation and photooxidation of NADH monitored by 1H NMR; type: biochemical
From the text: NADH is a key coenzyme involved in many biocatalyzed redox reactions in living cells, and the adequate redox balance of the NADH/NAD^+ redox couple is an important indicator of the metabolic state of the cell. Indeed, the overall in-cell NADH level is higher in cancerous cells than in normal cells to ensure high cell proliferation. Therefore, any selective catalysis of intracellular NADH oxidation to NAD^+ by a metal complex in cancer cells can disrupt its intracellular redox balance, causing cell death. , The catalytic oxidation and photooxidation of NADH (2.8 mM) by 3 (0.8 mM) in DMSO/D2O (5/95 v/v) was monitored by ^1H NMR spectroscopy at 298 K (Figure S34). In the dark (NADH + 3 + dark), a new set of characteristic peaks at 9.33, 9.17, 8.81, 8.48, 8.43, 8.20, 8.16, 6.04, and 5.97 ppm, ascribed to the protons of NAD^+ (∼8%), were detected after 72 h. Light irradiation greatly accelerates the oxidation process. In fact, ∼33% of NADH was oxidized to NAD^+ after irradiation (460 nm, 2 h), with an oxidation turnover number (TON) of 1.4 after 2 h (TOF 0.7 h^–1). […] It should be noted that platinum(II) complexes showing biocatalytic activity on the NADH/NAD^+ redox couple are very scarce.
The time dependence of the catalytic oxidation and photooxidation of complex 3 (0.8 mM) with NADH (2.8 mM) in DMSO/D2O (5/95 v/v) was studied for 72 h in the dark or 2h with light irradiation (λexc = 460 nm) by ^1H NMR at 298 K. The conversion of NADH to NAD^+ was approximately calculated from the NMR data.

Substance: [Pt(Me2N-pbt)(3-OH-pic-κN,O)] [Complex 3]
- photoactivity index (PI), EC50 dark / EC50 after irradiation, A549 (A549; 5 min irradiation at 450 nm): 5.6
- EC50 (A549; 4 h preincubation, 5 min irradiation at 450 nm, then dark until 72 h, read-out: EC50 A549 light): 1.1 ± 0.08 µM
- EC50 (A549; 72 h incubation at 37 °C, dark, read-out: EC50 A549 dark): 6.1 ± 0.2 µM
- reduction of the antiproliferative activity relative to 1, A549 (A549; dark conditions): ~5 times
- TOF ([1]; 460 nm irradiation, 2 h): 0.7 h^–1
- oxidation turnover number (TON) ([1]; 460 nm irradiation, after 2 h): 1.4
- NADH oxidized to NAD+ after irradiation ([1]; NADH 2.8 mM, complex 0.8 mM, DMSO/D2O 5/95, 298 K, 460 nm, 2 h): ~33%
- NAD+ formed from NADH in the dark ([1]; NADH 2.8 mM, complex 0.8 mM, DMSO/D2O 5/95, 298 K, dark, 72 h): ~8%
